From US20060160756A1, “Treatment and prevention of multi-drug resistance” (priority 2004, published 2006)
Where two headings read alike, the source gives them in different places.

Columns and labels:
[1] = test system: K562/adriamycin-resistant cells; assay: MTT assay: dofediquar effect on ADM cytotoxicity / growth of MDR cells; assay type: cell-based; conditions: for Growth rate (% of control): 2nd incubation (24 hr) without MS-209, MS-209 3 μM where present
[2] = Pharmacokinetics of dofediquar after single oral administration to fasted healthy male volunteers; assay type: in vivo, healthy male Japanese adults; conditions: for AUC / Cmax / Tmax / t½: mean ± S.D.
Experimental: The pharmacokinetic parameters of dofediquar (MS-209) are investigated in fasted healthy male Japanese adults. The study design is described in Table 2. The plasma concentrations of dofediquar after single oral administration of increasing doses from 100 to 1200 mg to fasted healthy male Japanese adults is illustrated in FIGS. 2 and 3.

[3] = Concentrations of dofediquar in plasma and tumor tissue after single oral administration in colon 26-bearing mice; assay type: in vivo; conditions: for Concentration of MS-209, Plasma / Concentration of MS-209, Tumor: mean ± SD of N = 3
[4] = test system: drug-resistant cancer cell lines; assay: In vitro studies using drug-resistant cancer cell lines (effective concentration); assay type: cell-based
Experimental: The effective concentration of dofediquar of about 3 μM (ca. 2 μg/mL) indicated in in vitro studies using drug-resistant cancer cell lines, is achieved at doses of 300 mg or higher.

[5] = 100 mg single oral dose, fasted
[6] = 300 mg single oral dose, fasted
[7] = 600 mg single oral dose, fasted
[8] = 900 mg single oral dose, fasted
[9] = 1200 mg single oral dose, fasted
[10] = single oral doses 100 to 1200 mg
[11] = 0.5 h after single oral 200 mg/kg
[12] = 1 h after single oral 200 mg/kg
[13] = 2 h after single oral 200 mg/kg
[14] = 5 h after single oral 200 mg/kg
[15] = 24 h after single oral 200 mg/kg

## COc1cccc2c1C(=O)c1c(O)c3c(c(O)c1C2=O)C[C@@](O)(C(=O)CO)C[C@@H]3O[C@H]1C[C@H](N)[C@H](O)[C@H](C)O1 [ADM, adriamycin]
[1]; ADM 100 ng/ml, 1st incubation 1 hr
  Growth rate (% of control): 93.4 % of control
[1]; ADM 100 ng/ml, 1st incubation 3 hr
  Growth rate (% of control): 102 % of control
[1]; ADM 100 ng/ml, 1st incubation 6 hr
  Growth rate (% of control): 92.0 % of control
[1]; ADM 300 ng/ml, 1st incubation 1 hr
  Growth rate (% of control): 88.1 % of control
[1]; ADM 300 ng/ml, 1st incubation 6 hr
  Growth rate (% of control): 100 % of control

## O=C(C(c1ccccc1)c1ccccc1)N1CCN(CC(O)COc2cccc3ncccc23)CC1 (stereo not drawn) [dofediquar]
[1]; co-treated with adriamycin (100-300 ng/ml) and dofediquar (3 μM), then 2nd incubation (24 hr) with dofediquar alone
  Cell growth inhibition with vs without dofediquar during the 2nd incubation: slightly more inhibited
[1]; pretreated with 3 μM dofediquar for 24 hours, washed away, then ADM alone for 72 hours (FIG. 1)
  Enhancement of ADM cytotoxicity: does not show an enhancement of ADM cytotoxicity
[2]; [5]
  AUC: 720 ± 210 ng·h/mL
  Cmax: 470 ± 200 ng/mL
  Tmax: 1.04 ± 0.40 h
  t½: 0.89 ± 0.37 h
[2]; [6]
  AUC: 7290 ± 2540 ng·h/mL
  Cmax: 2700 ± 740 ng/mL
  Tmax: 1.04 ± 0.40 h
  t½: 1.17 ± 0.25 h
[2]; [7]
  AUC: 32470 ± 5940 ng·h/mL
  Cmax: 10110 ± 2140 ng/mL
  Tmax: 0.75 ± 0.22 h
  t½: 2.25 ± 0.47 h
[2]; [8]
  AUC: 62900 ± 9670 ng·h/mL
  Cmax: 14030 ± 2480 ng/mL
  Tmax: 1.67 ± 0.68 h
  t½: 2.39 ± 0.37 h
[2]; [9]
  AUC: 105390 ± 20100 ng·h/mL
  Cmax: 20990 ± 2150 ng/mL
  Tmax: 1.00 ± 0.27 h
  t½: 3.10 ± 0.31 h
[2]; dose of 10 mg, single oral
  Detection in plasma: not detected
[2]; dose of 30 mg, single oral
  Detection in plasma: detected in one of 6 subjects
[2]; doses of 100 mg or higher, single oral
  Manner of decline of plasma concentration after the peak: declines in a monophasic manner
[2]; single oral dose, fasted
  Dose at which the effective concentration of about 3 μM (ca. 2 μg/mL) is achieved in plasma: ≥ 300 mg
[2]; [10]
  Dose dependence of Cmax and AUC: increase more steeply than expected from the dose increase
  Dose dependence of Tmax: does not change
  Dose dependence of half-life: increases with increasing dose
[3]; [11]
  Concentration of MS-209, Plasma: 25600 ± 9300 ng/mL
  Concentration of MS-209, Tumor: 15.9 ± 8.1 µg/g
[3]; [12]
  Concentration of MS-209, Plasma: 33000 ± 6300 ng/mL
  Concentration of MS-209, Tumor: 30.6 ± 7.5 µg/g
[3]; [13]
  Concentration of MS-209, Plasma: 27300 ± 7000 ng/mL
  Concentration of MS-209, Tumor: 28.0 ± 9.4 µg/g
[3]; [14]
  Concentration of MS-209, Plasma: 24600 ± 10000 ng/mL
  Concentration of MS-209, Tumor: 25.8 ± 10 µg/g
[3]; [15]
  Concentration of MS-209, Plasma: 610 ± 410 ng/mL
  Concentration of MS-209, Tumor: 0.52 ± 0.49 µg/g
[3]; single oral 200 mg/kg
  AUC, Plasma: 368000 ng·h/mL
  AUC, Tumor: 376 µg·h/g
[4]
  Effective concentration: about 3 μM
[4]; same value as 3 μM
  Effective concentration: ca. 2 μg/mL
